Test results as given in patent US8192962B2, “Processes for detecting toxic substances” (Daikin Industries, Ltd., priority 2001, dated 2012).

Test system: DNA repair protein genes
Assay: DNA chip mRNA expression in yeast, DNA repair protein genes (Table 3)
Format: cell-based, Saccharomyces cerevisiae S288C
Conditions: incubated two hours, concentrations as in the 1st table
Procedure, shortened: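 Value is the scanned fluorescence intensity ratio of exposed versus chemical-free cells. Log-phase S288C yeast in YPD at 25° C. received one toxic substance for two hours, dosed to slow growth without killing; Cy3/Cy5-labeled cDNA from oligo-dT-purified mRNA was hybridized to a whole-genome chip at 65° C.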

N#Cc1c(Cl)c(Cl)c(Cl)c(C#N)c1Cl [(9), 2,4,5,6-tetrachloro-1,3-benzenedicarbonitrile]
The level of expressed mRNA in the presence of chemical substance/The level of expressed mRNA in the absence of chemical substance (yeast gene YAL015C): 4.0
The level of expressed mRNA in the presence of chemical substance/The level of expressed mRNA in the absence of chemical substance (yeast gene YAR007C): 4.1
The level of expressed mRNA in the presence of chemical substance/The level of expressed mRNA in the absence of chemical substance (yeast gene YBL019W): 2.6
The level of expressed mRNA in the presence of chemical substance/The level of expressed mRNA in the absence of chemical substance (yeast gene YBR073W): 2.5
The level of expressed mRNA in the presence of chemical substance/The level of expressed mRNA in the absence of chemical substance (yeast gene YBR272C): 1.7
The level of expressed mRNA in the presence of chemical substance/The level of expressed mRNA in the absence of chemical substance (yeast gene YCR014C): 2.4
The level of expressed mRNA in the presence of chemical substance/The level of expressed mRNA in the absence of chemical substance (yeast gene YDL017W): 0.8
The level of expressed mRNA in the presence of chemical substance/The level of expressed mRNA in the absence of chemical substance (yeast gene YDL059C): 10.5
The level of expressed mRNA in the presence of chemical substance/The level of expressed mRNA in the absence of chemical substance (yeast gene YDL200C): 2.4
The level of expressed mRNA in the presence of chemical substance/The level of expressed mRNA in the absence of chemical substance (yeast gene YDR054C): 2.9
The level of expressed mRNA in the presence of chemical substance/The level of expressed mRNA in the absence of chemical substance (yeast gene YDR369C): 2.4
The level of expressed mRNA in the presence of chemical substance/The level of expressed mRNA in the absence of chemical substance (yeast gene YEL019C): 0.7
The level of expressed mRNA in the presence of chemical substance/The level of expressed mRNA in the absence of chemical substance (yeast gene YEL037C): 2.6
The level of expressed mRNA in the presence of chemical substance/The level of expressed mRNA in the absence of chemical substance (yeast gene YER162C): 2.8
The level of expressed mRNA in the presence of chemical substance/The level of expressed mRNA in the absence of chemical substance (yeast gene YFL014W): 13.1
The level of expressed mRNA in the presence of chemical substance/The level of expressed mRNA in the absence of chemical substance (yeast gene YGL058W): 3.7
The level of expressed mRNA in the presence of chemical substance/The level of expressed mRNA in the absence of chemical substance (yeast gene YGL091C): 10.8
The level of expressed mRNA in the presence of chemical substance/The level of expressed mRNA in the absence of chemical substance (yeast gene YGL127C): 1.2
The level of expressed mRNA in the presence of chemical substance/The level of expressed mRNA in the absence of chemical substance (yeast gene YGL163C): 5.8
The level of expressed mRNA in the presence of chemical substance/The level of expressed mRNA in the absence of chemical substance (yeast gene YGL249W): 0.3
The level of expressed mRNA in the presence of chemical substance/The level of expressed mRNA in the absence of chemical substance (yeast gene YGR180C): 1.4
The level of expressed mRNA in the presence of chemical substance/The level of expressed mRNA in the absence of chemical substance (yeast gene YGR231C): 3.2
The level of expressed mRNA in the presence of chemical substance/The level of expressed mRNA in the absence of chemical substance (yeast gene YGR258C): 2.5
The level of expressed mRNA in the presence of chemical substance/The level of expressed mRNA in the absence of chemical substance (yeast gene YHR164C): 1.3
The level of expressed mRNA in the presence of chemical substance/The level of expressed mRNA in the absence of chemical substance (yeast gene YIL036W): 3.6
The level of expressed mRNA in the presence of chemical substance/The level of expressed mRNA in the absence of chemical substance (yeast gene YIL072W): 2.9
The level of expressed mRNA in the presence of chemical substance/The level of expressed mRNA in the absence of chemical substance (yeast gene YIL143C): 7.1
The level of expressed mRNA in the presence of chemical substance/The level of expressed mRNA in the absence of chemical substance (yeast gene YIL153W): 4.3
The level of expressed mRNA in the presence of chemical substance/The level of expressed mRNA in the absence of chemical substance (yeast gene YIR002C): 1.7
The level of expressed mRNA in the presence of chemical substance/The level of expressed mRNA in the absence of chemical substance (yeast gene YJL026W): 1.0
The level of expressed mRNA in the presence of chemical substance/The level of expressed mRNA in the absence of chemical substance (yeast gene YJR046W): 6.0
The level of expressed mRNA in the presence of chemical substance/The level of expressed mRNA in the absence of chemical substance (yeast gene YJR052W): 4.5
The level of expressed mRNA in the presence of chemical substance/The level of expressed mRNA in the absence of chemical substance (yeast gene YKL145W): 3.5
The level of expressed mRNA in the presence of chemical substance/The level of expressed mRNA in the absence of chemical substance (yeast gene YLR103C): 0.8
The level of expressed mRNA in the presence of chemical substance/The level of expressed mRNA in the absence of chemical substance (yeast gene YLR233C): 0.6
The level of expressed mRNA in the presence of chemical substance/The level of expressed mRNA in the absence of chemical substance (yeast gene YLR288C): 0.8
The level of expressed mRNA in the presence of chemical substance/The level of expressed mRNA in the absence of chemical substance (yeast gene YML032C): 3.0
The level of expressed mRNA in the presence of chemical substance/The level of expressed mRNA in the absence of chemical substance (yeast gene YML058W): 1.1
The level of expressed mRNA in the presence of chemical substance/The level of expressed mRNA in the absence of chemical substance (yeast gene YMR035W): 1.7
The level of expressed mRNA in the presence of chemical substance/The level of expressed mRNA in the absence of chemical substance (yeast gene YMR072W): 3.0
The level of expressed mRNA in the presence of chemical substance/The level of expressed mRNA in the absence of chemical substance (yeast gene YMR096W): 3.3
The level of expressed mRNA in the presence of chemical substance/The level of expressed mRNA in the absence of chemical substance (yeast gene YMR284W): 1.6
The level of expressed mRNA in the presence of chemical substance/The level of expressed mRNA in the absence of chemical substance (yeast gene YNL213C): 3.0
The level of expressed mRNA in the presence of chemical substance/The level of expressed mRNA in the absence of chemical substance (yeast gene YNL250W): 4.2
The level of expressed mRNA in the presence of chemical substance/The level of expressed mRNA in the absence of chemical substance (yeast gene YNL261W): 2.3
The level of expressed mRNA in the presence of chemical substance/The level of expressed mRNA in the absence of chemical substance (yeast gene YNL312W): 3.7
The level of expressed mRNA in the presence of chemical substance/The level of expressed mRNA in the absence of chemical substance (yeast gene YOL043C): 1.0
The level of expressed mRNA in the presence of chemical substance/The level of expressed mRNA in the absence of chemical substance (yeast gene YOR005C): 2.4
The level of expressed mRNA in the presence of chemical substance/The level of expressed mRNA in the absence of chemical substance (yeast gene YOR386W): 4.1
The level of expressed mRNA in the presence of chemical substance/The level of expressed mRNA in the absence of chemical substance (yeast gene YPL022W): 2.1
The level of expressed mRNA in the presence of chemical substance/The level of expressed mRNA in the absence of chemical substance (yeast gene YPL164C): 2.1
The level of expressed mRNA in the presence of chemical substance/The level of expressed mRNA in the absence of chemical substance (yeast gene YPL194W): 9.6
The level of expressed mRNA in the presence of chemical substance/The level of expressed mRNA in the absence of chemical substance (yeast gene YPR025C): 1.9
